{"source": "patent US20240124491A1", "about": "“METHODS AND COMPOUNDS FOR TREATING FRIEDREICH'S ATAXIA” (Design Therapeutics, Inc., priority 2021, published 2024)"}
{"system": "human FXN", "assay": "EC50 assay: FXN mRNA expression by qRT-PCR in GM15850 cells after 48 hrs compound treatment", "type": "cell-based", "details": "Homo sapiens, 48 hrs incubation, hFXN expression normalized to hGAPDH (qRT-PCR), read-out: EC50 WT (nM, 48 hr)", "how_it_was_run": "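FXN transcript, normalized to GAPDH by TaqMan qRT-PCR, read out after 48 hrs of compound on GM15850 cells plated at 150,000 per well. Dosing used five 3-fold steps from 150 nM final, vehicle 0.01% DMSO.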", "units": {"EC50": "nM"}}
{"compound": "Cc1sc2c(c1C)C(c1ccc(Cl)cc1)=N[C@@H](CC(=O)Nc1cncc(N3CCC(N4CCN(CCOCCOCCOCCOCCOCCOCCNC(=O)CCNC(=O)c5nc(NC(=O)CCNC(=O)c6cc(NC(=O)c7nc(NC(=O)CCNC(=O)c8cc(NC(=O)c9nccn9C)cn8C)cn7C)cn6C)cn5C)CC4)CC3)c1)c1nnc(C)n1-2", "note": "[Compound 125]", "EC50": "< 100"}
{"compound": "Cc1sc2c(c1C)C(c1ccc(Cl)cc1)=N[C@@H](CC(=O)N1CC(C#CC#CC3CN(CCOCCOCCOCCOCCNC(=O)CCNC(=O)c4nc(NC(=O)CCNC(=O)c5cc(NC(=O)c6nc(NC(=O)CCNC(=O)c7cc(NC(=O)c8nccn8C)cn7C)cn6C)cn5C)cn4C)C3)C1)c1nnc(C)n1-2", "note": "[Compound 126]", "EC50": "< 100"}
{"compound": "Cc1sc2c(c1C)C(c1ccc(Cl)cc1)=N[C@@H](CC(=O)N1CC(C#CC#CC3CN(CCOCCOCCOCCOCCOCCOCCNC(=O)CCNC(=O)c4nc(NC(=O)CCNC(=O)c5cc(NC(=O)c6nc(NC(=O)CCNC(=O)c7cc(NC(=O)c8nccn8C)cn7C)cn6C)cn5C)cn4C)C3)C1)c1nnc(C)n1-2", "note": "[Compound 127]", "EC50": "< 100"}
{"compound": "Cc1sc2c(c1C)C(c1ccc(Cl)cc1)=N[C@@H](CC(=O)NC(C)(C)C#CC#CCNCCOCCOCCOCCOCCOCCOCCNC(=O)CCNC(=O)c1nc(NC(=O)CCNC(=O)c3cc(NC(=O)c4nc(NC(=O)CCNC(=O)c5cc(NC(=O)c6nccn6C)cn5C)cn4C)cn3C)cn1C)c1nnc(C)n1-2", "note": "[Compound 130]", "EC50": "< 100"}
{"compound": "Cc1c(C(=O)NCCN2CCN(C)CC2)sc2c1C(c1ccc(Cl)cc1)=N[C@@H](CC(=O)N1CCC(C#CC#CC3CCN(CCOCCOCCOCCOCCNC(=O)CCNC(=O)c4nc(NC(=O)CCNC(=O)c5cc(NC(=O)c6nc(NC(=O)CCNC(=O)c7cc(NC(=O)c8nccn8C)cn7C)cn6C)cn5C)cn4C)CC3)CC1)c1nnc(C)n1-2", "note": "[Compound 131]", "EC50": "100 to 500"}
{"compound": "COCCOCCOCCOCCOCCOCCOCCOCCOCCOCCOCCNC(=O)c1sc2c(c1C)C(c1ccc(Cl)cc1)=N[C@@H](CC(=O)N1CCC(C#CC#CC3CCN(CCOCCOCCOCCOCCNC(=O)CCNC(=O)c4nc(NC(=O)CCNC(=O)c5cc(NC(=O)c6nc(NC(=O)CCNC(=O)c7cc(NC(=O)c8nccn8C)cn7C)cn6C)cn5C)cn4C)CC3)CC1)c1nnc(C)n1-2", "note": "[Compound 133]", "EC50": "100 to 500"}
{"compound": "Cc1c(C(=O)N2CCC(C#CC#CC3CCN(CCOCCOCCOCCOCCNC(=O)CCNC(=O)c4nc(NC(=O)CCNC(=O)c5cc(NC(=O)c6nc(NC(=O)CCNC(=O)c7cc(NC(=O)c8nccn8C)cn7C)cn6C)cn5C)cn4C)CC3)CC2)sc2c1C(c1ccc(Cl)cc1)=N[C@@H](CC(=O)NCCN1CCN(C)CC1)c1nnc(C)n1-2", "note": "[Compound 134]", "EC50": "100 to 500"}
{"compound": "Cc1cc(F)cc(C)c1Oc1ccc(C(C)(C)O)cc1-c1cn(C)c(=O)c2[nH]c(C(=O)N3CCC(C#CC#CC4CCN(CCOCCOCCOCCOCCNC(=O)CCNC(=O)c5nc(NC(=O)CCNC(=O)c6cc(NC(=O)c7nc(NC(=O)CCNC(=O)c8cc(NC(=O)c9nccn9C)cn8C)cn7C)cn6C)cn5C)CC4)CC3)cc12", "note": "[Compound 135]", "EC50": "100 to 500"}
{"compound": "CC(=O)Nc1c(O[C@@H](C)c2ccccc2)cc(C=O)c(N2CCC(C#CC#CC3CCN(CCOCCOCCOCCOCCNC(=O)CCNC(=O)c4nc(NC(=O)CCNC(=O)c5cc(NC(=O)c6nc(NC(=O)CCNC(=O)c7cc(NC(=O)c8nccn8C)cn7C)cn6C)cn5C)cn4C)CC3)CC2)c1F", "note": "[Compound 136]", "EC50": "> 500"}
{"compound": "Cc1sc2c(c1C)C(c1ccc(Cl)cc1)=N[C@@H](CC(=O)N1CCC(C#CC#CC3CCN(CCOCCOCCNC(=O)CCNC(=O)c4nc(NC(=O)CCNC(=O)c5cc(NC(=O)c6nc(NC(=O)CCNC(=O)c7cc(NC(=O)c8nccn8C)cn7C)cn6C)cn5C)cn4C)CC3)CC1)c1nnc(C)n1-2", "note": "[Compound 138]", "EC50": "< 100"}
{"compound": "Cc1sc2c(c1C)C(c1ccc(Cl)cc1)=N[C@@H](CC(=O)N1CCC(C#CC#CC3CCN(CCOCCOCCOCCNC(=O)CCNC(=O)c4nc(NC(=O)CCNC(=O)c5cc(NC(=O)c6nc(NC(=O)CCNC(=O)c7cc(NC(=O)c8nccn8C)cn7C)cn6C)cn5C)cn4C)CC3)CC1)c1nnc(C)n1-2", "note": "[Compound 139]", "EC50": "< 100"}
{"compound": "Cc1sc2c(c1C)C(c1ccc(Cl)cc1)=N[C@@H](CC(=O)N1CCC(C#CC#CC3CCN(CCOCCOCCOCCOCCOCCNC(=O)CCNC(=O)c4nc(NC(=O)CCNC(=O)c5cc(NC(=O)c6nc(NC(=O)CCNC(=O)c7cc(NC(=O)c8nccn8C)cn7C)cn6C)cn5C)cn4C)CC3)CC1)c1nnc(C)n1-2", "note": "[Compound 140]", "EC50": "< 100"}
{"compound": "Cc1sc2c(c1C)C(c1ccc(Cl)cc1)=N[C@@H](CC(=O)N1CCC(C#CC#CC3CCN(CCOCCOCCOCCOCCOCCOCCNC(=O)CCNC(=O)c4nc(NC(=O)CCNC(=O)c5cc(NC(=O)c6nc(NC(=O)CCNC(=O)c7cc(NC(=O)c8nccn8C)cn7C)cn6C)cn5C)cn4C)CC3)CC1)c1nnc(C)n1-2", "note": "[Compound 141]", "EC50": "< 100"}
{"compound": "Cc1sc2c(c1C)C(c1ccc(Cl)cc1)=N[C@@H](CC(=O)N1CCC(C#CC#CC3CCN(CCOCCOCCOCCOCCOCCOCCOCCNC(=O)CCNC(=O)c4nc(NC(=O)CCNC(=O)c5cc(NC(=O)c6nc(NC(=O)CCNC(=O)c7cc(NC(=O)c8nccn8C)cn7C)cn6C)cn5C)cn4C)CC3)CC1)c1nnc(C)n1-2", "note": "[Compound 142]", "EC50": "< 100"}
{"compound": "CC(=O)N1c2ccc(-c3ccc(C(=O)N4CCC(C#CC#CC5CCN(CCOCCOCCNC(=O)CCNC(=O)c6nc(NC(=O)CCNC(=O)c7cc(NC(=O)c8nc(NC(=O)CCNC(=O)c9cc(NC(=O)c%10nccn%10C)cn9C)cn8C)cn7C)cn6C)CC5)CC4)cc3)cc2C(Nc2ccc(Cl)cc2)C[C@@H]1C", "note": "(stereo partly shown) [Compound 144]", "EC50": "< 100"}
{"compound": "CC(=O)N1c2ccc(-c3ccc(C(=O)N4CCC(C#CC#CC5CCN(CCOCCOCCOCCOCCNC(=O)CCNC(=O)c6nc(NC(=O)CCNC(=O)c7cc(NC(=O)c8nc(NC(=O)CCNC(=O)c9cc(NC(=O)c%10nccn%10C)cn9C)cn8C)cn7C)cn6C)CC5)CC4)cc3)cc2C(Nc2ccc(Cl)cc2)C[C@@H]1C", "note": "(stereo partly shown) [Compound 145]", "EC50": "< 100"}
{"compound": "CC(=O)N1c2ccc(-c3ccc(C(=O)N4CCC(C#CC#CC5CCN(CCOCCOCCOCCOCCOCCOCCNC(=O)CCNC(=O)c6nc(NC(=O)CCNC(=O)c7cc(NC(=O)c8nc(NC(=O)CCNC(=O)c9cc(NC(=O)c%10nccn%10C)cn9C)cn8C)cn7C)cn6C)CC5)CC4)cc3)cc2C(Nc2ccc(Cl)cc2)C[C@@H]1C", "note": "(stereo partly shown) [Compound 150]", "EC50": "< 100"}
{"compound": "Cc1sc2c(c1C)C(c1ccc(Cl)cc1)=N[C@@H](CC(=O)NC1CCN(C(C)(C)C#CC#CC3CCN(CCOCCOCCOCCOCCOCCNC(=O)CCNC(=O)c4nc(NC(=O)CCNC(=O)c5cc(NC(=O)c6nc(NC(=O)CCNC(=O)c7cc(NC(=O)c8nccn8C)cn7C)cn6C)cn5C)cn4C)CC3)CC1)c1nnc(C)n1-2", "note": "[Compound 151]", "EC50": "< 100"}
{"compound": "Cc1sc2c(c1C)C(c1ccc(Cl)cc1)=N[C@@H](CC(=O)NC1CCN(CC#CC#CC3CCN(CCOCCOCCNC(=O)CCNC(=O)c4nc(NC(=O)CCNC(=O)c5cc(NC(=O)c6nc(NC(=O)CCNC(=O)c7cc(NC(=O)c8nccn8C)cn7C)cn6C)cn5C)cn4C)CC3)CC1)c1nnc(C)n1-2", "note": "[Compound 155]", "EC50": "< 100"}
{"compound": "Cc1sc2c(c1C)C(c1ccc(Cl)cc1)=N[C@@H](CC(=O)NC1CCN(CC#CC#CC3CCN(CCOCCOCCOCCNC(=O)CCNC(=O)c4nc(NC(=O)CCNC(=O)c5cc(NC(=O)c6nc(NC(=O)CCNC(=O)c7cc(NC(=O)c8nccn8C)cn7C)cn6C)cn5C)cn4C)CC3)CC1)c1nnc(C)n1-2", "note": "[Compound 156]", "EC50": "< 100"}
{"compound": "Cc1sc2c(c1C)C(c1ccc(Cl)cc1)=N[C@@H](CC(=O)NC1CCN(CC#CC#CC3CCN(CCOCCOCCOCCOCCOCCOCCOCCNC(=O)CCNC(=O)c4nc(NC(=O)CCNC(=O)c5cc(NC(=O)c6nc(NC(=O)CCNC(=O)c7cc(NC(=O)c8nccn8C)cn7C)cn6C)cn5C)cn4C)CC3)CC1)c1nnc(C)n1-2", "note": "[Compound 157]", "EC50": "< 100"}
{"compound": "Cc1cc(F)cc(C)c1Oc1ccc(C(C)(C)O)cc1-c1cn(C)c(=O)c2[nH]c(C(=O)NC3CCN(CC#CC#CC4CCN(CCOCCOCCOCCOCCOCCNC(=O)CCNC(=O)c5nc(NC(=O)CCNC(=O)c6cc(NC(=O)c7nc(NC(=O)CCNC(=O)c8cc(NC(=O)c9nccn9C)cn8C)cn7C)cn6C)cn5C)CC4)CC3)cc12", "note": "[Compound 158]", "EC50": "< 100"}
{"compound": "Cc1sc2c(c1C)C(c1ccc(Cl)cc1)=N[C@@H](CC(=O)NC1CCN(C(C)(C)C#CC#CCNCCOCCOCCOCCOCCOCCNC(=O)CCNC(=O)c3nc(NC(=O)CCNC(=O)c4cc(NC(=O)c5nc(NC(=O)CCNC(=O)c6cc(NC(=O)c7nccn7C)cn6C)cn5C)cn4C)cn3C)CC1)c1nnc(C)n1-2", "note": "[Compound 159]", "EC50": "< 100"}
{"compound": "Cc1sc2c(c1C)C(c1ccc(Cl)cc1)=N[C@@H](CC(=O)N1CCC(C#CC#CC3CCN(CCOCCNC(=O)CCNC(=O)c4nc(NC(=O)CCNC(=O)c5cc(NC(=O)c6nc(NC(=O)CCNC(=O)c7cc(NC(=O)c8nccn8C)cn7C)cn6C)cn5C)cn4C)CC3)CC1)c1nnc(C)n1-2", "note": "[Compound 160]", "EC50": "< 100"}
{"compound": "Cc1sc2c(c1C)C(c1ccc(Cl)cc1)=N[C@@H](CC(=O)N1CCC(C#CC#CC3CCN(CCNC(=O)CCNC(=O)c4nc(NC(=O)CCNC(=O)c5cc(NC(=O)c6nc(NC(=O)CCNC(=O)c7cc(NC(=O)c8nccn8C)cn7C)cn6C)cn5C)cn4C)CC3)CC1)c1nnc(C)n1-2", "note": "[Compound 161]", "EC50": "< 100"}
{"compound": "Cc1sc2c(c1C)C(c1ccc(Cl)cc1)=N[C@@H](CC(=O)N1CCC(C#CC#CCNCCOCCNC(=O)CCNC(=O)c3nc(NC(=O)CCNC(=O)c4cc(NC(=O)c5nc(NC(=O)CCNC(=O)c6cc(NC(=O)c7nccn7C)cn6C)cn5C)cn4C)cn3C)CC1)c1nnc(C)n1-2", "note": "[Compound 163]", "EC50": "< 100"}
{"compound": "Cc1sc2c(c1C)C(c1ccc(Cl)cc1)=N[C@@H](CC(=O)N1CCC(C#CC#CCNC(=O)CCNC(=O)c3nc(NC(=O)CCNC(=O)c4cc(NC(=O)c5nc(NC(=O)CCNC(=O)c6cc(NC(=O)c7nccn7C)cn6C)cn5C)cn4C)cn3C)CC1)c1nnc(C)n1-2", "note": "[Compound 164]", "EC50": "> 500"}
{"compound": "Cc1cc(F)cc(C)c1Oc1ccc(C(C)(C)O)cc1-c1cn(C)c(=O)c2[nH]c(C(=O)N3CCN(CC4CCN(CCOCCOCCOCCOCCOCCOCCNC(=O)CCNC(=O)c5nc(NC(=O)CCNC(=O)c6cc(NC(=O)c7nc(NC(=O)CCNC(=O)c8cc(NC(=O)c9nccn9C)cn8C)cn7C)cn6C)cn5C)CC4)CC3)cc12", "note": "[Compound 167]", "EC50": "> 500"}
